Experimental data taken from PubChem BioAssay (NCI).
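A five-concentration, 48-hour dose response in 96-well plates underlies each endpoint, interpolated linearly between surrounding concentrations. GI50 marks 50% less growth. TGI marks complete inhibition of growth.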

What was measured:
Test in all cases: NCI anticancer screen, dose series, 48 h
[1] = tested on: 786-0 renal
[2] = tested on: A498 renal
[3] = tested on: A549 NSCLC
[4] = tested on: ACHN renal
[5] = tested on: BT-549 breast
[6] = tested on: CAKI-1 renal
[7] = tested on: CCRF-CEM leukemia
[8] = tested on: COLO 205 colon
[9] = tested on: DU-145 prostate
[10] = tested on: EKVX NSCLC
[11] = tested on: HCC-2998 colon
[12] = tested on: HCT-116 colon
[13] = tested on: HCT-15 colon
[14] = tested on: HL-60(TB) leukemia
[15] = tested on: HOP-62 NSCLC
[16] = tested on: HOP-92 NSCLC
[17] = tested on: HS 578T breast
[18] = tested on: HT29 colon
[19] = tested on: IGROV1 ovarian
[20] = tested on: K-562 leukemia
[21] = tested on: KM12 colon
[22] = tested on: LOX IMVI melanoma
[23] = tested on: M14 melanoma
[24] = tested on: MALME-3M melanoma
[25] = tested on: MCF7 breast
[26] = tested on: MDA-MB-231 breast
[27] = tested on: MDA-MB-435
[28] = tested on: MOLT-4 leukemia
[29] = tested on: NCI-H226 lung
[30] = tested on: NCI-H460 lung
[31] = tested on: NCI-H522 lung
[32] = tested on: NCI/ADR-RES ovarian
[33] = tested on: OVCAR-3 ovarian
[34] = tested on: OVCAR-4 ovarian
[35] = tested on: OVCAR-5 ovarian
[36] = tested on: OVCAR-8 ovarian
[37] = tested on: PC-3 prostate
[38] = tested on: RPMI-8226 leukemia
[39] = tested on: RXF 393 renal
[40] = tested on: SF-268 CNS
[41] = tested on: SF-295 CNS
[42] = tested on: SF-539 CNS
[43] = tested on: SK-MEL-2 melanoma
[44] = tested on: SK-MEL-28 melanoma
[45] = tested on: SK-MEL-5 melanoma
[46] = tested on: SK-OV-3 ovarian
[47] = tested on: SN12C renal
[48] = tested on: SNB-19 CNS
[49] = tested on: SNB-75 CNS
[50] = tested on: SR leukemia
[51] = tested on: SW-620 colon
[52] = tested on: T-47D breast
[53] = tested on: TK-10 renal
[54] = tested on: U251 CNS
[55] = tested on: UACC-257 melanoma
[56] = tested on: UACC-62 melanoma
[57] = tested on: UO-31 renal

## CCNC(=O)N1CCc2cc(OC)c(OCCc3ccc(OC)cc3)cc2C1c1ccc(Cl)cc1C (centres undefined)
[1]
  GI50: 421 nM
  TGI: > 100000 nM
[2]
  GI50: 4020 nM
  TGI: > 24200 nM
[3]
  GI50: 735 nM
  TGI: > 100000 nM
[4]
  GI50: 676 nM
  TGI: > 100000 nM
[5]
  GI50: 1060 nM
  TGI: 4570 nM
[6]
  GI50: 736 nM
  TGI: > 50100 nM
[7]
  GI50: 382 nM
  TGI: > 100000 nM
[8]
  GI50: 1020 nM
  TGI: 5940 nM
[9]
  GI50: 830 nM
  TGI: > 100000 nM
[10]
  GI50: 4090 nM
  TGI: > 100000 nM
[11]
  GI50: 1270 nM
  TGI: > 33300 nM
[12]
  GI50: 86.6 nM
  TGI: > 100000 nM
[13]
  GI50: 85.3 nM
  TGI: > 100000 nM
[14]
  GI50: 643 nM
  TGI: 3970 nM
[15]
  GI50: 958 nM
  TGI: > 100000 nM
[16]
  GI50: 1480 nM
  TGI: > 21400 nM
[17]
  GI50: 1700 nM
  TGI: 8990 nM
[18]
  GI50: 444 nM
  TGI: 3140 nM
[19]
  GI50: 607 nM
  TGI: > 100000 nM
[20]
  GI50: 92.4 nM
  TGI: > 100000 nM
[21]
  GI50: 1380 nM
  TGI: > 31400 nM
[22]
  GI50: 186 nM
  TGI: 1770 nM
[23]
  GI50: 726 nM
  TGI: > 100000 nM
[24]
  GI50: 3650 nM
  TGI: > 100000 nM
[25]
  GI50: 422 nM
  TGI: > 100000 nM
[26]
  GI50: 801 nM
  TGI: > 100000 nM
[27]
  GI50: 660 nM
  TGI: 5820 nM
[28]
  GI50: 338 nM
  TGI: > 100000 nM
[29]
  GI50: 1890 nM
  TGI: 7060 nM
[30]
  GI50: 100 nM
  TGI: 2250 nM
[31]
  GI50: 700 nM
  TGI: 2950 nM
[32]
  GI50: 735 nM
  TGI: 5810 nM
[33]
  GI50: 1040 nM
  TGI: > 100000 nM
[34]
  GI50: 2580 nM
  TGI: > 100000 nM
[35]
  GI50: 1860 nM
  TGI: > 100000 nM
[36]
  GI50: 669 nM
  TGI: > 100000 nM
[37]
  GI50: 217 nM
  TGI: > 100000 nM
[38]
  GI50: 403 nM
  TGI: 3950 nM
[39]
  GI50: 1450 nM
  TGI: > 21600 nM
[40]
  GI50: 1030 nM
  TGI: > 100000 nM
[41]
  GI50: 711 nM
  TGI: 12700 nM
[42]
  GI50: 410 nM
  TGI: 3160 nM
[43]
  GI50: 3520 nM
  TGI: > 23700 nM
[44]
  GI50: 943 nM
  TGI: > 100000 nM
[45]
  GI50: 670 nM
  TGI: 2310 nM
[46]
  GI50: 2110 nM
  TGI: > 100000 nM
[47]
  GI50: 1020 nM
  TGI: > 25000 nM
[48]
  GI50: 683 nM
  TGI: > 100000 nM
[49]
  GI50: 456 nM
  TGI: 6300 nM
[50]
  GI50: 96.1 nM
  TGI: 3300 nM
[51]
  GI50: 568 nM
  TGI: > 100000 nM
[52]
  GI50: 1840 nM
  TGI: > 100000 nM
[53]
  GI50: 3520 nM
  TGI: > 100000 nM
[54]
  GI50: 479 nM
  TGI: > 40100 nM
[55]
  GI50: 2310 nM
  TGI: > 100000 nM
[56]
  GI50: 532 nM
  TGI: 6440 nM
[57]
  GI50: 932 nM
  TGI: > 100000 nM
